Experimental data published in patent US20230150974A1 (Foghorn Therapeutics Inc., priority 2020, published 2023).

Assays:
[1] = biological target: T1, HiBiT-BRM (Homo sapiens, UniProt P51531); assay: HiBiT-BRM cell-based degradation assay (Nano-Glo HiBiT Lytic Detection); settings: HeLa cells expressing HiBiT-BRM, 24 h; for DC50: read-out: BRM HiBit Degradation IC50
T1 construct: expressed in transfected cells
Outline: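 Luminescence from HiBiT–LgBiT complementation in lysates of a stable HiBiT-BRM HeLa line measured after 24 h compound exposure. Degradation expressed as percent relative to DMSO-treated cells and cells given 2 μM of a known BRM/BRG1 degrader.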

[2] = biological target: T2, HiBit-BRG1 (Homo sapiens, UniProt P51532); assay: HiBit-BRG1 cell-based degradation assay (Nano-Glo HiBiT Lytic Detection); settings: HeLa cells expressing HiBit-BRG1 and LgBit, 24 h; for DC50: read-out: BRG1 HiBit Degradation IC50; for Dmax: read-out: BRG1 HiBit Degradation Maximum (%)
T2 construct: expressed in transfected cells
Outline: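 Luminescence from reconstituted NanoBiT luciferase after lytic detection served as read-out of remaining HiBit-BRG1 in stable HeLa cells, which also express LgBit. Cells were seeded at 5000 per well and incubated with compound for 24 h. DMSO and a 2 μM known degrader defined the control range.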

T1 sequence (P51531 whole entry): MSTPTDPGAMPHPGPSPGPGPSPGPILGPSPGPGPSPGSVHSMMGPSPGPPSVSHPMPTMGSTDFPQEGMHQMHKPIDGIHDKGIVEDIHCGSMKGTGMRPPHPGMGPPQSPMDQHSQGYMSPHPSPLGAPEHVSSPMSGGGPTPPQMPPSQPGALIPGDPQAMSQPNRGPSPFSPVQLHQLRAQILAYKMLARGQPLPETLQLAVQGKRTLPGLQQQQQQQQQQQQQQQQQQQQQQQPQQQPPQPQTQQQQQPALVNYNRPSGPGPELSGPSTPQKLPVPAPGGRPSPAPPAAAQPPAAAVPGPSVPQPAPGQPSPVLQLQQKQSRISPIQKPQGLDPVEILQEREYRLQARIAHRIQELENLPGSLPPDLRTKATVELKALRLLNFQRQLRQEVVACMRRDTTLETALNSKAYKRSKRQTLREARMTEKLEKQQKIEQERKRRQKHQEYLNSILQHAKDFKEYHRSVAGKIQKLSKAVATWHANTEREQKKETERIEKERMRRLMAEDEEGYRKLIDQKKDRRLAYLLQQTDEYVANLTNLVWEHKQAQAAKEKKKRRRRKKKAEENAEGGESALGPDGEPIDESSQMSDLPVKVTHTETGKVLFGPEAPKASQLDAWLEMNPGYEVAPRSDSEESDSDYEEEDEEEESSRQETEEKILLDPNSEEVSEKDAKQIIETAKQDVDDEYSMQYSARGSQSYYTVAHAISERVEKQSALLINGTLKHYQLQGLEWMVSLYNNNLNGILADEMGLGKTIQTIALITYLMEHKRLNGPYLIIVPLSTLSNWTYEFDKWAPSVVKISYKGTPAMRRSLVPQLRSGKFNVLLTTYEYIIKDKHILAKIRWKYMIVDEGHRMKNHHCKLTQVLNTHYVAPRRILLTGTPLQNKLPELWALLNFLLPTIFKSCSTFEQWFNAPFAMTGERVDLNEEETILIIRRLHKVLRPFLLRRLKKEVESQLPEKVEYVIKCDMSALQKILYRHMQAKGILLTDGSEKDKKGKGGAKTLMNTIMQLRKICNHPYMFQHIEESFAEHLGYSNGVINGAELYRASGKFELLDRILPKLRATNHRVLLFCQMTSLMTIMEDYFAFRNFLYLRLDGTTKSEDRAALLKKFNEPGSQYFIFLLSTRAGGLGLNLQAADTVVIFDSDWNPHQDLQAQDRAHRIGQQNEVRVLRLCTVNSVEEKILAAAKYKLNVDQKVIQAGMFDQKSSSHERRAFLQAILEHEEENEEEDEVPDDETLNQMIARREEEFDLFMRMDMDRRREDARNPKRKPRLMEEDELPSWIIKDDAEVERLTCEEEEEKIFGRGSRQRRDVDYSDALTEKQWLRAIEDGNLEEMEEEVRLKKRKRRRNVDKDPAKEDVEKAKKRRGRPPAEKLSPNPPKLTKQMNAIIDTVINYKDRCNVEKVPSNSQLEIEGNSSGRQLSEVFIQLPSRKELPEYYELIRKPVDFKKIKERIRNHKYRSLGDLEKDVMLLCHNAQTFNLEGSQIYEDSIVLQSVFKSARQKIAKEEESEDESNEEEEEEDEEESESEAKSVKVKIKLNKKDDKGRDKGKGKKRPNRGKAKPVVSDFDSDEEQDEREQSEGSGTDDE
T2 sequence (P51532 whole entry): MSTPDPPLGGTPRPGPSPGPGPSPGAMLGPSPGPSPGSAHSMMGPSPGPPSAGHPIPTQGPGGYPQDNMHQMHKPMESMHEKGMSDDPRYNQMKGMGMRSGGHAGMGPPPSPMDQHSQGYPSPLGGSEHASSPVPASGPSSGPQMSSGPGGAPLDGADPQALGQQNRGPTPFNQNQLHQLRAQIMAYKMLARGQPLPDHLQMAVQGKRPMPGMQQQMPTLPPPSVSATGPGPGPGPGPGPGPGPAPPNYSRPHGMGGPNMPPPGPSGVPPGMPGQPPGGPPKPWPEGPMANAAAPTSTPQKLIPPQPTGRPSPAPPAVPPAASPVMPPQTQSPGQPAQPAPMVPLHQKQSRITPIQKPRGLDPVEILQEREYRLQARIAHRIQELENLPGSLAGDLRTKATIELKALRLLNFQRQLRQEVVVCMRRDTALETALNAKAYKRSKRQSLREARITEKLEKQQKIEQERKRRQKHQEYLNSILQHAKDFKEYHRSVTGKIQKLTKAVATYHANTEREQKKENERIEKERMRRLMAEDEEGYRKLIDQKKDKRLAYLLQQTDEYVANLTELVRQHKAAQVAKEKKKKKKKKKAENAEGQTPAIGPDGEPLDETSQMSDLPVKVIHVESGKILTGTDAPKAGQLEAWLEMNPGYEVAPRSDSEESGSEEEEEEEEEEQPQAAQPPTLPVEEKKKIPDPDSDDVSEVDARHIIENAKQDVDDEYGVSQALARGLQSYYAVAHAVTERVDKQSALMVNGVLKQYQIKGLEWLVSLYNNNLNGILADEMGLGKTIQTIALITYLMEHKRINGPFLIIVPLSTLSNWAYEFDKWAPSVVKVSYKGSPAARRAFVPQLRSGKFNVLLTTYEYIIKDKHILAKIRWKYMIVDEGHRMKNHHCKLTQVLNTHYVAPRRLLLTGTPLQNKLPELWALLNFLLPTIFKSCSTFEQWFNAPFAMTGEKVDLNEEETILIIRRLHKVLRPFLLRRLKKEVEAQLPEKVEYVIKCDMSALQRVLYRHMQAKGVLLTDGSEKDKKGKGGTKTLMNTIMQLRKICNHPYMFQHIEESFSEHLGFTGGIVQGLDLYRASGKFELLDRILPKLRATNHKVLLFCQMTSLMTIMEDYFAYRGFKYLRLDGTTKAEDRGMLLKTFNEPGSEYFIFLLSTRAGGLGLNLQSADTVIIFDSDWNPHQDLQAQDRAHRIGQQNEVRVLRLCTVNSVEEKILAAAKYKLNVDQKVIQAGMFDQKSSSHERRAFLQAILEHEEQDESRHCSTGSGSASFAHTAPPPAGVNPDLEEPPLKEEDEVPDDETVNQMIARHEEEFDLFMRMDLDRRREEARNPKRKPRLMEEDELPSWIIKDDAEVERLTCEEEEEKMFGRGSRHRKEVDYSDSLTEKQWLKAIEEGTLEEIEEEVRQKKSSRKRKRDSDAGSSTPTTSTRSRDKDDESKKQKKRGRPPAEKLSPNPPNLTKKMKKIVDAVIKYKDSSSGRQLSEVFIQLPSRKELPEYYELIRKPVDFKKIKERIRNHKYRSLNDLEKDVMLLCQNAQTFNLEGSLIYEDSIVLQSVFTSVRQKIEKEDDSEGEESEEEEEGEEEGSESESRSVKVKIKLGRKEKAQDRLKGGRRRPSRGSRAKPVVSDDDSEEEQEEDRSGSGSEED

| Compound | BRM HiBit Degradation Maximum (%) [1] | DC50 [1] | DC50 [2] | Dmax [2] |
| --- | --- | --- | --- | --- |
| Cc1ncsc1-c1ccc(CNC(=O)[C@@H]2C[C@@H](O)CN2C(=O)[C@@H](NC(=O)CCN2CCC(O)(C(=O)NCc3ccc(CCOc4cc(-c5ccccc5O)nnc4N)cc3)CC2)C(C)(C)C)cc1 [Compound 185, N-[[4-(2-[[3-amino-6-(2-hydroxyphenyl)pyridazin-4-yl]oxy]ethyl)phenyl]methyl]-4-hydroxy-1-(2-[[(2S)-1-[(2S,4R)-4-hydroxy-2-([[4-(4-methyl-1,3-thiazol-5-yl)phenyl]methyl]carbamoyl)pyrrolidin-1-yl]-3,3-dimethyl-1-oxobutan-2-yl]carbamoyl]ethyl)piperidine-4-carboxamide] | C (“C” indicates maximum degradation <50%) | > 1 µM | > 1 µM | < 50% |
| Cc1ncsc1-c1ccc(CNC(=O)[C@@H]2C[C@@H](O)CN2C(=O)[C@@H](NC(=O)CCN2CCC3(CC2)CC(C(=O)NCc2ccc(CCOc4cc(-c5ccccc5O)nnc4N)cc2)C3)C(C)(C)C)cc1 [Compound 186, N-[[4-(2-[[3-amino-6-(2-hydroxyphenyl)pyridazin-4-yl]oxy]ethyl)phenyl]methyl]-7-(2-[[(2S)-1-[(2S,4R)-4-hydroxy-2-([[4-(4-methyl-1,3-thiazol-5-yl)phenyl]methyl]carbamoyl)pyrrolidin-1-yl]-3,3-dimethyl-1-oxobutan-2-yl]carbamoyl]ethyl)-7-azaspiro[3.5]nonane-2-carboxamide] | C (“C” indicates maximum degradation <50%) | > 1 µM | > 1 µM | < 50% |
| Cc1ncsc1-c1ccc(CNC(=O)[C@@H]2C[C@@H](O)CN2C(=O)[C@@H](NC(=O)CCNCc2ccc(CCOc3cc(-c4ccccc4O)nnc3N)cc2)C(C)(C)C)cc1 [Compound 187, (2S,4R)-1-((S)-2-(3-((4-(2-((3-amino-6-(2-hydroxyphenyl)pyridazin-4-yl)oxy)ethyl)benzyl)amino)propanamido)-3,3-dimethylbutanoyl)-4-hydroxy-N-(4-(4-methylthiazol-5-yl)benzyl)pyrrolidine-2-carboxamide] | C (“C” indicates maximum degradation <50%) | > 1 µM | > 1 µM | < 50% |
| Cc1ncsc1-c1ccc(CNC(=O)[C@@H]2C[C@@H](O)CN2C(=O)[C@@H](NC(=O)CCN2CC3(CN(CCC(=O)NCc4ccc(CCOc5cc(-c6ccccc6O)nnc5N)cc4)C3)C2)C(C)(C)C)cc1 [Compound 188, (2S,4R)-1-[(2S)-2-(3-[6-[2-([[4-(2-[[3-amino-6-(2-hydroxyphenyl)pyridazin-4-yl]oxy]ethyl)phenyl]methyl]carbamoyl)ethyl]-2,6-diazaspiro[3.3]heptan-2-yl]propanamido)-3,3-dimethylbutanoyl]-4-hydroxy-N-[[4-(4-methyl-1,3-thiazol-5-yl)phenyl]methyl]pyrrolidine-2-carboxamide] | C (“C” indicates maximum degradation <50%) | > 1 µM | > 1 µM | < 50% |
| Cc1ncsc1-c1ccc(CNC(=O)[C@@H]2C[C@@H](O)CN2C(=O)[C@@H](NC(=O)CCN2CCN(CCC(=O)NCc3ccc(CCOc4cc(-c5ccccc5O)nnc4N)cc3)CC2)C(C)(C)C)cc1 [Compound 189, (2S,4R)-1-[(2S)-2-(3-[4-[2-([[4-(2-[[3-amino-6-(2-hydroxyphenyl)pyridazin-4-yl]oxy]ethyl)phenyl]methyl]carbamoyl)ethyl]piperazin-1-yl]propanamido)-3,3-dimethylbutanoyl]-4-hydroxy-N-[[4-(4-methyl-1,3-thiazol-5-yl)phenyl]methyl]pyrrolidine-2-carboxamide] | C (“C” indicates maximum degradation <50%) | > 1 µM | > 1 µM | < 50% |
| Cc1ncsc1-c1ccc([C@H](C)NC(=O)[C@@H]2C[C@@H](O)CN2C(=O)[C@@H](c2cc(OCCN3C[C@@H]4CN(C(=O)c5ccc(CCOc6cc(-c7ccccc7O)nnc6N)cc5)C[C@@H]4C3)no2)C(C)C)cc1 [Compound 190, (2S,4R)-1-((2R)-2-(3-(2-(5-(4-(2-((3-amino-6-(2-hydroxyphenyl)pyridazin-4-yl)oxy)ethyl)benzoyl)hexahydropyrrolo[3,4-c]pyrrol-2(1H)-yl)ethoxy)isoxazol-5-yl)-3-methylbutanoyl)-4-hydroxy-N-((S)-1-(4-(4-methylthiazol-5-yl)phenyl)ethyl)pyrrolidine-2-carboxamide] | A (“A” indicates maximum degradation ≥75%) | > 0.01 µM | > 0.1 µM | > 75% |
| Cc1ncsc1-c1ccc([C@H](C)NC(=O)[C@@H]2C[C@@H](O)CN2C(=O)[C@@H](c2cc(OCCN3CC4(C3)CN(CC(=O)NCc3ccc(CCOc5cc(-c6ccccc6O)nnc5N)cc3)C4)no2)C(C)C)cc1 [Compound 191, (2S,4R)-1-[(2R)-2-[3-(2-[6-[([[4-(2-[[3-amino-6-(2-hydroxyphenyl)pyridazin-4-yl]oxy]ethyl)phenyl]methyl]carbamoyl)methyl]-2,6-diazaspiro[3.3]heptan-2-yl]ethoxy)-1,2-oxazol-5-yl]-3-methylbutanoyl]-4-hydroxy-N-[(1S)-1-[4-(4-methyl-1,3-thiazol-5-yl)phenyl]ethyl]pyrrolidine-2-carboxamide] | A (“A” indicates maximum degradation ≥75%) | > 0.1 µM | > 1 µM | > 75% |
| Cc1ncsc1-c1ccc([C@H](C)NC(=O)[C@@H]2C[C@@H](O)CN2C(=O)[C@@H](c2cc(OCCN3CC4(C3)CN(CCC(=O)NCc3ccc(CCOc5cc(-c6ccccc6O)nnc5N)cc3)C4)no2)C(C)C)cc1 [Compound 192, (2S,4R)-1-[(2R)-2-[3-(2-[6-[2-([[4-(2-[[3-amino-6-(2-hydroxyphenyl)pyridazin-4-yl]oxy]ethyl)phenyl]methyl]carbamoyl)ethyl]-2,6-diazaspiro[3.3]heptan-2-yl]ethoxy)-1,2-oxazol-5-yl]-3-methylbutanoyl]-4-hydroxy-N-[(1S)-1-[4-(4-methyl-1,3-thiazol-5-yl)phenyl]ethyl]pyrrolidine-2-carboxamide] | A (“A” indicates maximum degradation ≥75%) | > 0.1 µM | > 1 µM | > 50% |
| Cc1ncsc1-c1ccc([C@H](C)NC(=O)[C@@H]2C[C@@H](O)CN2C(=O)[C@@H](c2cc(OCCN3CC(CC(=O)NCc4ccc(CCOc5cc(-c6ccccc6O)nnc5N)cc4)C3)no2)C(C)C)cc1 [Compound 193, (2S,4R)-1-[2-[3-(2-[3-[([[4-(2-[[3-amino-6-(2-hydroxyphenyl)pyridazin-4-yl]oxy]ethyl)phenyl]methyl]carbamoyl)methyl]azetidin-1-yl]ethoxy)-1,2-oxazol-5-yl]-3-methylbutanoyl]-4-hydroxy-N-[(1S)-1-[4-(4-methyl-1,3-thiazol-5-yl)phenyl]ethyl]pyrrolidine-2-carboxamide] | B (“B” indicates maximum degradation ≥50%) | > 0.1 µM | > 1 µM | < 50% |
| Cc1ncsc1-c1ccc([C@H](C)NC(=O)[C@@H]2C[C@@H](O)CN2C(=O)[C@@H](c2cc(OCCN3C[C@@H]4[C@H](C3)[C@H]4C(=O)NCc3ccc(CCOc4cc(-c5ccccc5O)nnc4N)cc3)no2)C(C)C)cc1 [Compound 194] | A (“A” indicates maximum degradation ≥75%) | > 0.01 µM | > 0.1 µM | > 75% |
| Cc1ncsc1-c1ccc([C@H](C)NC(=O)[C@@H]2C[C@@H](O)CN2C(=O)[C@@H](c2cc(OCCN3CCC4(CC3)CC(C(=O)NCc3ccc(CCOc5cc(-c6ccccc6O)nnc5N)cc3)C4)no2)C(C)C)cc1 [Compound 195, N-(4-(2-((3-amino-6-(2-hydroxyphenyl)pyridazin-4-yl)oxy)ethyl)benzyl)-7-(2-((5-((R)-1-((2S,4R)-4-hydroxy-2-(((S)-1-(4-(4-methylthiazol-5-yl)phenyl)ethyl)carbamoyl)pyrrolidin-1-yl)-3-methyl-1-oxobutan-2-yl)isoxazol-3-yl)oxy)ethyl)-7-azaspiro[3.5]nonane-2-carboxamide] | A (“A” indicates maximum degradation ≥75%) | > 0.01 µM | > 0.1 µM | > 75% |
| Cc1ncsc1-c1ccc(CNC(=O)[C@@H]2C[C@@H](O)CN2C(=O)[C@@H](NC(=O)CCN2CC3(C2)CN(CC(=O)NCc2ccc(CCOc4cc(-c5ccccc5O)nnc4N)cc2)C3)C(C)(C)C)cc1 [Compound 196, (2S,4R)-1-((S)-2-(3-(6-(2-((4-(2-((3-amino-6-(2-hydroxyphenyl)pyridazin-4-yl)oxy)ethyl)benzyl)amino)-2-oxoethyl)-2,6-diazaspiro[3.3]heptan-2-yl)propanamido)-3,3-dimethylbutanoyl)-4-hydroxy-N-(4-(4-methylthiazol-5-yl)benzyl)pyrrolidine-2-carboxamide] | C (“C” indicates maximum degradation <50%) | > 1 µM | > 1 µM | < 50% |
| Cc1ncsc1-c1ccc([C@H](C)NC(=O)[C@@H]2C[C@@H](O)CN2C(=O)[C@@H](NC(=O)CCCCCCCCCCCCCC(=O)N(C)Cc2ccc(CCOc3cc(-c4ccccc4O)nnc3N)cc2)C(C)(C)C)cc1 [Compound 197, N1-(4-(2-((3-amino-6-(2-hydroxyphenyl)pyridazin-4-yl)oxy)ethyl)benzyl)-N15-((S)-1-((2S,4R)-4-hydroxy-2-(((S)-1-(4-(4-methylthiazol-5-yl)phenyl)ethyl)carbamoyl)pyrrolidin-1-yl)-3,3-dimethyl-1-oxobutan-2-yl)-N1-methylpentadecanediamide] | A (“A” indicates maximum degradation ≥75%) | > 0.01 µM | > 1 µM | < 50% |
